Experiment [1] deals with MALME3M cells. Kind of experiment: Cell viability assay (CellTiter-Glo), MALME3M. The format is cell-based, human. The conditions noted are these: MALME3M B-RAF V600E metastatic melanoma cell line. On the procedure:
(§1) Cells were plated in black, clear-bottomed 384-well plates (Catalog 353962; Becton Dickinson; Franklin Lakes, N.J.) at a density of 1500 cells/well and incubated overnight to 1.5 days at 37° C., 5% CO2. Serial dilutions of GDC-0068, GDC-0973, or both in combination were then added to the cells and incubated for another 96 hours. Cell viability was determined by measuring the cellular adenosine triphosphate (ATP) levels as described in the manufacturer's protocol (CellTiter-Glo Luminescent Cell Viability Assay kit; Catalog G7573; Promega, Madison, Wis.). Luminescence signal was recorded on an EnVision 2101 Multilabel Reader (PerkinElmer; Waltham, Mass.).
(§2) Percentage inhibition was calculated by dividing the relative light unit (RLU) of cells exposed to the GDC-0068 and GCD-0973 combination to the RLU of cells exposed to DMSO and subtracting it from 1, as expressed below: % inhibition=1−(RLUcombination/RLUDMSO)
(§3) BLISS analysis compared the expected % inhibition (E=EGDC-0068+EGDC-0973−EGDC-0068×EGDC-0973) with the experimentally observed % inhibition, EOBS. The BLISS score is the difference (ΔE=EOBS−E) between the expected % inhibition, E, and the experimentally observed inhibition, EOBS.
(In general: ATP-based viability assays read luminescence as a measure of living cells.)

For experiment [2], the system named is A2058 (PTEN null/Braf mutant) melanoma model. Kind of experiment: A2058 melanoma xenograft model, tumor growth inhibition. The format is in vivo. On the procedure: Methods of measuring TGI are known in the art. In one example method, average tumor volumes are determined and compared from the patient before and after treatment. Tumor volumes can be measured in two dimensions (length and width) using any method in the art, for example UltraCal IV calipers (Fred V. Fowler Company) or by PET (positron emission tomography), or by some other method. The formula tumor volume (mm^3)=(length×width^2)×0.5 can be used. Measuring tumor volumes over multiple time periods can be done using a mixed-modeling Linear Mixed Effects (LME) approach (Pinheiro et al. 2009). This approach can address both repeated measurements (and multiple patients). Cubic regression splines can be used to fit a non-linear profile to the time courses of tumor volume at each dose level. These non-linear profiles can then be related to dose within the mixed model. Tumor growth inhibition as a percent of vehicle can be calculated as a percent area under the fitted curve (AUC) per day in relation to the vehicle, using the following formula:
[formula] Using this formula, a TGI value of 100% indicates tumor stasis, greater than about 1% but less than about 100% indicates tumor growth inhibition, and greater than about 100% indicates tumor regression. Preparation of a Compound of Formula I
The efficacy of representative combinations of the invention were measured in vivo by implanting allografts or xenografts of cancer cells in rodents and treating the tumor-bearing animals with the combinations. Variable results are to be expected depending on the cell line, the presence or absence of certain mutations in the tumor cells, the sequence of administration the compounds, dosing regimen, and other factors. Subject mice were treated with drug(s) or control (Vehicle) and monitored over several weeks or more to measure the time to tumor doubling, log cell kill, and tumor inhibition.

Experiment [3] deals with MALME3 cells. The experiment can be described thus: Cell viability assay (CellTiter-Glo), MALME3. The format is cell-based, human. The conditions noted are these: MALME3 normal skin fibroblasts. Here is the method: as §1, §2, §3

2 compounds from patent US9682082B2, “Combinations of AKT and MEK inhibitor compounds, and methods of use” (GENENTECH, INC., priority 2011, dated 2017) can be followed below.

Turning to `CC(C)NC[C@@H](C(=O)N1CCN(c2ncnc3c2[C@H](C)C[C@H]3O)CC1)c1ccc(Cl)cc1` [GDC-0068, (S)-2-(4-chlorophenyl)-1-(4-((5R,7R)-7-hydroxy-5-methyl-6,7-dihydro-5H-cyclopenta[d]pyrimidin-4-yl)piperazin-1-yl)-3-(isopropylamino)propan-1-one], the “single agent effect on cell viability” value in experiment [1] is on record as “lack of single agent activity”. Moreover, the “single agent tumor growth inhibition (TGI)” value is reported as “No TGI” in experiment [2] (50 mg/kg of GDC-0068); “Comparable single agent tumor growth inhibition (TGI)” in experiment [2] (higher doses of GDC-0068 (75 and 100 mg/kg)).

`O=C(c1ccc(F)c(F)c1Nc1ccc(I)cc1F)N1CC(O)([C@@H]2CCCCN2)C1` [GDC-0973, (S)-(3,4-difluoro-2-(2-fluoro-4-iodophenylamino)phenyl)(3-hydroxy-3-(piperidin-2-yl)azetidin-1-yl)methanone]: the figures for the “single agent effect on cell viability” value in experiment [1] and in experiment [3] were “sensitivity” and “resistant”, respectively. Moreover, in experiment [2] (all doses of GDC-0973), the “single agent tumor growth inhibition (TGI)” value was “Comparable single agent tumor growth inhibition (TGI)”.
